Measured values from US5166214A, “Use of imidazoles for the treatment of atherosclerosis” (priority 1990, dated 1992).
Where two headings read alike, the source gives them in different places.

Assays:
[1] = tested on: murine macrophage-like cell line J774.A1; assay: Inhibition of cholesterol esterification in mammalian cells (macrophage assay); assay type: cell-based; details: J774.A1 macrophages loaded with ac-LDL, 14C-oleic acid; read-out: Cholesterol Esterification IC50
Description: B. Assay of the Inhibition of Cholesterol Esterification in Mammalian Cells
The esterification of cholesterol was determined in the murine macrophage-like cell line J774.A1. Cells were seeded in 35 mm wells at a density of 300,000 cells per well in 2 mls of Dulbecco's Eagle Medium (DMEM) supplemented with 10% fetal bovine serum (FBS). Cells were incubated at 37° C. in an atmosphere of 5% CO2 and 93% humidity. After 24 hours the media was changed to 0.68 mls 10% FBS-DMEM containing 34 μg of acetylated human low density lipoprotein (ac-LDL) to increase the intracellular concentration of cholesterol and promote esterification. At 41 hours, various inhibitors were added to the cells in DMSO (10 μl/ml maximum). At 43 hours, the cells were pulsed with 0.1 mM ^14 C-oleic acid (10,000 dpm/nmol) complexed with BSA (bovine serum albumin) to follow cholesterol ester formation. The experiment was terminated at 45 hours by washing the monolayers 3 times with 3 ml of Tris-buffered saline at 4° C. The lipids were extracted by incubating the monolayers with 1.5 ml of hexane:isopropanol (3:2, v/v) for 30 min. under gentle agitation. During this period, 10,000 dpm 3H-cholesteryl linoleate and 10 μg of cholesteryl oleate were added as an internal standard and carrier respectively. The organic solvent was removed and the cells were washed with an additional 1.0 ml of hexane: isopropanol which was combined with the original extract. The cells were allowed to dry overnight, digested with 1.5 ml of 0.2N sodium hydroxide for 1 hour and an aliquot of the solubilized protein used for protein determination using the Lowry method. The organic extract was taken to dryness, the residue resuspended in 100 μl of chloroform and the lipids separated on silica gel impregnated glass fiber plates using a hexane:diethylether:acetic acid (170:30:1, v/v/v) solvent system. Individual lipids were visualized with iodine and the cholesteryl ester spot cut out and transferred to scintillation vials to determine the amount of radioactivity. The conversion of oleic acid to cholesteryl ester in the control averaged 0.54 […] and was increased upon the addition of ac-LDL to about 10.69±0.69 […]. […] It should be noted that many of the intermediates had inhibitory activity in the in vitro ACAT assay and in the macrophage assay.

[2] = target: T1, Acyl-CoA: Cholesterol Acyltransferase (ACAT) (Rattus norvegicus, UniProt Q7TQM4); assay: Inhibition of acyl-CoA: cholesterol acyltransferase (ACAT) in hepatic microsomes (in vitro); assay type: biochemical, rat (male Sprague Dawley)
T1 construct: Microsomes were obtained by differential centrifugation; from tissue; host or cells: liver microsomes of male Sprague Dawley rats
T1 sequence (Q7TQM4 1-524): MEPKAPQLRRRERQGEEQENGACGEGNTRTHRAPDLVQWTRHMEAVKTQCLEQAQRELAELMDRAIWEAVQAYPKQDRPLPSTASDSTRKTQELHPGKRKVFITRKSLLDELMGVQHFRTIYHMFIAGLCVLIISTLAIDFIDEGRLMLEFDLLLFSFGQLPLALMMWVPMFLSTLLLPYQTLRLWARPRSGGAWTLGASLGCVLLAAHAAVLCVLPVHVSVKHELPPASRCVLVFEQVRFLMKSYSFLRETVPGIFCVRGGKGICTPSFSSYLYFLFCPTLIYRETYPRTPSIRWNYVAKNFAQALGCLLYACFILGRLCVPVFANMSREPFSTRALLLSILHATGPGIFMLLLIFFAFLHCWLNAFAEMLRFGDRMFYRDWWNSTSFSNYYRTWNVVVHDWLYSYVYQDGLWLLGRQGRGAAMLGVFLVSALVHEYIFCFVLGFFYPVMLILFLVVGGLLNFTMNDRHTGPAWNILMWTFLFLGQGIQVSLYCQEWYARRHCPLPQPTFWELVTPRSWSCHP
Description: A. Assay of the Inhibition of Acyl-CoA: Cholesterol Acyltransferase (ACAT) in Hepatic Microsomes
The ability of the compounds to inhibit ACAT, the enzyme responsible for the intracellular synthesis of cholesteryl esters, was tested as follows. Male Sprague Dawley rats weighing 150-300 g, were fed rat chow ad libitum. The animals were fasted for twenty-four hours prior to being sacrificed by decapitation. The livers were perfused in situ with 50 ml of cold 0.25M sucrose, excised, and homogenized in three volumes of 0.1M phosphate buffer, pH 7.4, that contained 0.5 mM EDTA (ethylenediaminetetraacetic acid), 1.0 mM glutathione, 0.25M sucrose and […]. Microsomes were obtained by differential centrifugation; the supernatant from an initial spin at 15,000×g for 15 minutes was centrifuged at 105,000×g for 1 hour to pellet the microsomes. The microsomes were suspended in homogenization buffer, reisolated by centrifugation, and stored at -70° C. Microsomes were used within one month of preparation.
The control assay in a final volume of 200 μl consisted of 200 μg of microsomal protein, 75 μM ^14 C-oleoyl-CoA (10,000 dpm/nmol) in 0.1M phosphate, pH 7.4, that contained 1 mM glutathione. Compounds were added in 5 μl of DMSO (dimethyl sulfoxide) and additional controls were run with DMSO only. All components, except the oleoyl-CoA, were preincubated for 15 min. at 37° C. prior to the initiation of the reaction by the addition of oleoyl-CoA. The assay was terminated after 10 min by the addition of 4 ml of chloroform:methanol (2:1, v/v). 20,000 dpm of ^3 H-cholesteryl oleate and 10 μg of unlabeled cholesteryl oleate and oleic acid were added as an internal standard and carriers, respectively. After allowing 10 min. for lipid extraction, the samples were centrifuged at 1,000×g for 10 min. to separate the solvent layers. The chloroform layer containing the neutral lipids was spotted onto a Baker SI250-Pa silica gel TLC plate and the plate developed using a hexane: diethyl ether: acetic acid (170:30:1 v/v/v) mobile phase. The lipids were visualized by their interaction with iodine vapor and the cholesteryl ester spot was scraped into a scintillation vial and counted.

[3] = rat hepatic microsomes, 75 μM 14C-oleoyl-CoA, pH 7.4, 37° C., read-out: In Vitro ACAT IC50

Compound | IC50 [1] | IC50 [2, 3] | IC50 ([2]; In Vitro ACAT IC50) | IC50 ([2]; In Vitro ACAT IC50, rat hepatic microsomes, 75 μM 14C-oleoyl-CoA, pH 7.4, 37° C.)
CCCCN(CCCCCCCCSc1nc(-c2ccccc2)c(-c2ccccc2)[nH]1)C(=O)Nc1ccc(F)cc1F [Example 4, N-butyl-N'-(2,4-difluorophenyl)-N-[8-(4,5-diphenyl-1H-imidazol-2-ylthio)octyl]urea] | 4600 nM | 60 nM |  | 
CCCCCCCCNC(=O)N(CCCCCCC)CCCCCSc1nc(-c2ccccc2)c(-c2ccccc2)[nH]1 [Example 97, N-[5-(4,5-diphenyl-1H-imidazol-2-ylthio)pentyl]-N-heptyl-N'-octylurea] | 700 nM | 25 nM |  | 
CCCCCCCN(CCCCCSc1nc(-c2ccccc2)c(-c2ccccc2)[nH]1)C(=O)Nc1c(Cl)cccc1Cl [Example 64, N'-(2,6-dichlorophenyl)-N-[5-(4,5-diphenyl-1H-imidazol-2-ylthio)pentyl]-N-heptylurea] | 600 nM | 30 nM |  | 
CCCCCCCN(CCCCCSc1nc(-c2ccccc2)c(-c2ccccc2)[nH]1)C(=O)OCc1ccccc1 [Example 408, (Phenylmethyl) [5-(4,5-diphenyl-1H-imidazol-2-ylthio)pentyl]heptylcarbamate] | 1300 nM | 9 nM |  | 
CCCCCCCN(CCCCCSc1nc(-c2ccccc2)c(-c2ccccc2)[nH]1)C(=S)NCCC [Example 299, N-[5-(4,5-diphenyl-1H-imidazol-2-ylthio)pentyl]-N-heptyl-N'-propylthiourea] | 1200 nM | 140 nM |  | 
CCCCCCCN(CCCCCSc1nc(-c2ccc(OC)cc2)c(-c2ccc(OC)cc2)[nH]1)C(=O)CCC [Example 348, N-[5-[4,5-bis(4-methoxyphenyl)-1H-imidazol-2-ylthio]pentyl]-N-heptylbutanamide] | 200 nM | 700 nM |  | 
CCCCCCCN(CCCCCSc1nc(-c2ccccc2)c(-c2ccccc2)[nH]1)C(=O)CCC [Example 341, N-[5-(4,5-diphenyl-1H-imidazol-2-ylthio)pentyl]-N-heptylbutanamide] | 100 nM | 3 nM |  | 
CCCCCCCN(CCCCCSc1nc(-c2ccccc2)c(-c2ccccc2)[nH]1)C(=O)CCCC [Example 342, N-[5-(4,5-diphenyl-1H-imidazol-2-ylthio)pentyl]-N-heptylpentanamide] | 1600 nM | 30 nM |  | 
CCCCCCCN(CCCCCSc1nc(-c2cccc(OC)c2)c(-c2cccc(OC)c2)[nH]1)C(=O)Nc1ccc(F)cc1F [Example 195, N-[5-[4,5-bis(3-methoxyphenyl)-1H-imidazol-2-ylthio]pentyl]-N'-(2,4-difluorophenyl)-N-heptylurea] | 400 nM | 40 nM |  | 
CCCCCCCN(CCCCCSc1nc(-c2ccc(OC)cc2)c(-c2ccc(OC)cc2)[nH]1)C(=O)Cc1ccc(F)cc1F [Example 351, N-[5-[4,5-bis(4-methoxyphenyl)-1H-imidazol-2-ylthio]pentyl]-2,4-difluoro-N-heptylbenzeneacetamide] | 40 nM | 250 nM |  | 
CCCCCCCN(CCCCCSc1nc(-c2cccs2)c(-c2cccs2)[nH]1)C(=O)Nc1ccc(F)cc1F [Example 110, N-[5-[4,5-bis(2-thienyl)-1H-imidazol-2-ylthio]pentyl]-N'-(2,4-difluorophenyl)-N-heptylurea] | 900 nM | 60 nM |  | 
CCCCCCCN(CCCCCSc1nc(-c2ccccc2)c(-c2ccc(N(C)C)cc2)[nH]1)C(=O)Nc1ccc(F)cc1F [Example 200] | 800 nM | 710 nM |  | 
CCCCCCCN(CCCCCSc1nc(-c2ccc(OC)cc2)c(-c2ccc(OC)cc2)[nH]1)C(=O)NC(C)C [Example 202, N-[5-[4,5-bis(4-methoxyphenyl)-1H-imidazol-2-ylthio]pentyl]-N-heptyl-N'-(1-methylethyl)urea] | 4 nM | 220 nM |  | 
CCCCCCCN(CCCCCSc1nc(-c2ccccc2)c(-c2ccccc2)[nH]1)C(=O)Nc1ccc(C#N)cc1 [Example 85, N'-(4-cyanophenyl)-N-[5-(4,5-diphenyl-1H-imidazol-2-ylthio)pentyl]-N-heptylurea] | 3100 nM |  | 60 nM | 
CCCCCCCN(CCCCCSc1nc(-c2ccc(N(C)C)cc2)c(-c2ccc(N(C)C)cc2)[nH]1)C(=O)CC1CCCCC1 [Example 354] | 20 nM | 50 nM |  | 
CCCN(CCSc1nc(-c2ccccc2)c(-c2ccccc2)[nH]1)C(=O)Nc1ccc(F)cc1F [Example 9, N'-(2.4-difluorophenyl)-N[-2-(4,5-diphenyl-1H-imidazol-2-ylthio)ethyl]-N-propylurea] | 11200 nM | 930 nM |  | 
CCCCCCCN(CCCCCSc1nc(-c2ccccn2)c(-c2ccccn2)[nH]1)C(=O)Nc1ccc(F)cc1F [Example 194] | 4100 nM | 1900 nM |  | 
CCCCCCCN(CCCCCSc1nc(-c2ccc(OC)cc2)c(-c2ccc(OC)cc2)[nH]1)CCc1ccc(F)cc1F [Example 353, N-[5-[4,5-bis(4-methoxyphenyl)-1H-imidazol-2-ylthio]pentyl]-2,4-difluoro-N-heptylbenzeneethaneamine] | 80 nM | 240 nM |  | 
CCCCCCCN(CCCCCSc1nc(-c2ccc(O)cc2)c(-c2ccc(O)cc2)[nH]1)C(=O)Nc1ccc(F)cc1F [Example 209, N-[5-[4,5-bis(4-hydroxyphenyl)-1H-imidazol-2-ylthio]pentyl]-N'-(2,4-difluorophenyl)-N-heptylurea] | 4800 nM | 1400 nM |  | 
CCCCCCCN(CCCCCSc1nc(-c2ccc(Cl)cc2)c(-c2ccc(Cl)cc2)[nH]1)C(=O)Nc1ccc(F)cc1F [Example 137] | 3400 nM | 76 nM |  | 
CCCCCCCN(CCCCCSc1nc(C(C)C)c(C(C)C)[nH]1)C(=O)CC1CCCCC1 [Example 347, N-[5-[4,5-bis(1-methylethyl)-1H-imidazol-2-ylthio]pentyl]-N-heptylcyclohexaneacetamide] | 300 nM | 30 nM |  | 
CCCCN(CCCCCCCCSc1nc(-c2ccccc2)c(-c2ccccc2)[nH]1)C(=O)NC(C)C [Example 262] |  | 200 nM |  | 
CCCCCCCN(CCCCCSc1nc(-c2ccc(N(C)C)cc2)c(-c2ccc(N(C)C)cc2)[nH]1)C(=O)Oc1ccccc1 [Example 409, Phenyl [5-[4,5-bis(4-(dimethylamino)phenyl)-1H-imidazol-2-ylthio]pentyl]heptylcarbamate] |  |  |  | 120 nM
